Experimental data published in patent US7127357B1, “Crystal structure of WW domains and methods of use thereof” (The Salk Institute for Biological Studies, priority 2000, dated 2006).
Non-standard residues stand in square brackets, D forms with d. Residues, ends and D or L forms follow the SMILES beside them. *: point of attachment. X1 = CN(C)c1ccc2c(c1)Oc1cc(N(C)C)ccc1C21OC(=O)c2cc(NC(=S)*)ccc21; pT = C[C@@H](OP(=O)(O)O)[C@H](N)C(=O)O; pS = N[C@@H](COP(=O)(O)O)C(=O)O

Tests used:
[1] = target: T1, Pin1 PPIase domain (Homo sapiens, UniProt Q13526); assay: Fluorescence anisotropy binding of rhodamine-labeled peptides to isolated Pin1 PPIase domain
T1 construct: the PPIase domain includes residues 50–163 of Pin1
T1 sequence (Q13526 50-163): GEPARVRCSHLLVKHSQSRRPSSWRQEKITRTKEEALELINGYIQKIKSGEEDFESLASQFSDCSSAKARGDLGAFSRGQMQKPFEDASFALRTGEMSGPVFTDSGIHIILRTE
Protocol: Protein purification and crystallography. His8-tagged Pin1 was expressed and purified by Ni^+2-chelation chromatography, the histidine tag was removed by thrombin digestion, and the protein purified as described in Ranganathan et al., Cell 89:875–886, 1997. All site-directed mutants were constructed using the QuikChange (Stratagene) protocol and purified like wild type Pin1. Crystals of the Pin1-YpSPTpSPS complex were grown in hanging drops at 4° C. by mixing 1.0 μl of the Pin1-peptide complex with 1.0 μl of a reservoir solution containing 100 mM MOPSO-Na^+ (pH 7.0), 28% (v/v) PEG 8000, 2 mM DTT, stabilized in 100 mM MOPSO-Na^+ (pH 7.0), 25% (v/v) PEG 8000, 20% (v/v) glycerol, 1 mM DTT, and rapidly frozen in a 100 K stream of nitrogen gas. A native data set extending to 1.84 Å resolution was collected at the Stanford Synchrotron Radiation Laboratory, beamline 9-1 (λ=0.98 Å). Data were processed with DENZO and scaled with […] (Otwinowski, Z., Minor, W. Meth. Enzymol. 276:307–326, 1997). The crystals contain one Pin1-peptide complex per asymmetric unit and belong to space group P212121 (a=35.27 Å, b=43.90 Å, c=124.66 Å, α=β=γ=90°). The final data set with an overall R merge of 6.2% (R merge=33.7% in the highest resolution shell) is 97.3% complete (98.2% in the highest resolution shell) for the resolution range of 62.02 Å to 1.84 Å. The structure of the Pin1-YpSPTpSPS repeat complex was solved by molecular replacement with AMORE (Navaza, J. Acta Crystallogr. A 50:157–163, 1994) using the Pin1 monomer as a starting model (Ranganathan et al., Cell 89:875–886, 1997). The resulting model was then positionally refined against all the data between 62.02 Å and 1.84 Å using the default bulk solvent model in CNS with maximum likelihood targets (Brunger et al., Acta Crystallogr. D 54:905–921, 1998). After refining the rebuilt model, water molecules were added automatically using CNS and edited manually in O. The final positional refinement converged to a crystallographic R factor of 24% (R free=27%) for all data (17107 reflections) between 62.02 Å and 1.84 Å. This model consists of residues 1 to 38 and 51 to 163 of human Pin1, the entire phosphopeptide, and 151 water molecules. Model quality was checked with PROCHECK (Laskowski et al., J. Appl. Crystallogr. 26:283–291, 1993). A total of 91.7% of the residues are in the most favored regions of the Ramachandran plot, 6.8% in the additional allowed region, and 0.8% in the generously allowed region. Glu-5 borders the generously allowed region.
Binding Analysis. […] These peptides were derived from proteins previously shown to interact with Pin1. While the set of peptides examined is limited, a consensus emerges from comparison of the highest affinity interactions. Lyophilized peptides were dissolved in 25 mM HEPES-Na^+ (pH 7.5), 100 mM NaCl, 1 mM DTT and stored for short periods of time at −20° C. […] Fluorescence data were collected on a PTI Alphascan spectrofluorimeter (Photon Technology Instruments, Santa Clara, Calif.). Dissociation equilibrium constants for Pin1-peptide complexes were determined by measuring the change in fluorescence anisotropy of a set of peptide solutions at constant concentration of peptide each of which contained varied concentrations of Pin1 using the procedure described previously (Vinson et al., Biochemistry 37:10871–10880, 1998). The core binding element determined from this group of peptides is PXpSP, where X cannot be Gly. […]

[2] = target: T2, Pin1 WW domain (Homo sapiens, UniProt Q13526); assay: Fluorescence anisotropy binding of rhodamine-labeled peptides to isolated Pin1 WW domain
T2 construct: The WW domain of Pin1 includes residues 1 to 39
T2 sequence (Q13526 1-39 limits assumed): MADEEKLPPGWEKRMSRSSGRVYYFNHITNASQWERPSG
Protocol: (§1) Protein purification and crystallography. His8-tagged Pin1 was expressed and purified by Ni^+2-chelation chromatography, the histidine tag was removed by thrombin digestion, and the protein purified as described in Ranganathan et al., Cell 89:875–886, 1997. All site-directed mutants were constructed using the QuikChange (Stratagene) protocol and purified like wild type Pin1. Crystals of the Pin1-YpSPTpSPS complex were grown in hanging drops at 4° C. by mixing 1.0 μl of the Pin1-peptide complex with 1.0 μl of a reservoir solution containing 100 mM MOPSO-Na^+ (pH 7.0), 28% (v/v) PEG 8000, 2 mM DTT, stabilized in 100 mM MOPSO-Na^+ (pH 7.0), 25% (v/v) PEG 8000, 20% (v/v) glycerol, 1 mM DTT, and rapidly frozen in a 100 K stream of nitrogen gas. […]
(§2) Binding Analysis. […] Fluorescence data were collected on a PTI Alphascan spectrofluorimeter (Photon Technology Instruments, Santa Clara, Calif.). Dissociation equilibrium constants for Pin1-peptide complexes were determined by measuring the change in fluorescence anisotropy of a set of peptide solutions at constant concentration of peptide each of which contained varied concentrations of Pin1 using the procedure described previously (Vinson et al., Biochemistry 37:10871–10880, 1998). The core binding element determined from this group of peptides is PXpSP, where X cannot be Gly. […]

[3] = target: T3, Pin1 (Homo sapiens, UniProt Q13526); assay: Fluorescence anisotropy binding of rhodamine-labeled peptides to full length Pin1; settings: errors are deviations from theoretical binding isotherms
T3 construct: His8 (cleaved yes); made in house; host or cells: E. coli
T3 sequence (Q13526 whole entry): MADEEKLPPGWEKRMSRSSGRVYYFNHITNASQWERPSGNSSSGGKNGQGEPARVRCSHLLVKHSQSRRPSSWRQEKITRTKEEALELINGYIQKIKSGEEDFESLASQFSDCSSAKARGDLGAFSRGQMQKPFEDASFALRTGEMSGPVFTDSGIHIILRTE
Protocol: as §1, §2

| Compound | Dissociation equilibrium constants for Pin1-peptide complexes, PPIase [1] | Dissociation equilibrium constants for Pin1-peptide complexes, WW [2] | Dissociation equilibrium constants for Pin1-peptide complexes, Pin1 [3] |
| --- | --- | --- | --- |
| C[C@H](NC(=O)[C@@H]1CCCN1C(=O)[C@@H]1CCCN1C(=S)Nc1ccc2c(c1)C(=O)OC21c2ccc(N(C)C)cc2Oc2cc(N(C)C)ccc21)C(=O)N[C@H](C(=O)N1CCC[C@H]1C(=O)N1CCC[C@H]1C(=O)O)[C@@H](C)OP(=O)(O)O [PPApTPP (Myt1-T412), PPApTPP] (X1-PPA[pT]PP-OH) | n.b. | – | – |
| CN(C)c1ccc2c(c1)Oc1cc(N(C)C)ccc1C21OC(=O)c2cc(NC(=S)N3CCC[C@H]3C(=O)N3CCC[C@H]3C(=O)NCC(=O)N[C@@H](COP(=O)(O)O)C(=O)N3CCC[C@H]3C(=O)N3CCC[C@H]3C(=O)O)ccc21 [PPGpSPP (Myt1-S416), PPGpSPP] (X1-PPG[pS]PP-OH) | n.b. | – | – |
| C[C@@H](O)[C@H](NC(=O)[C@H](CO)NC(=S)Nc1ccc2c(c1)C(=O)OC21c2ccc(N(C)C)cc2Oc2cc(N(C)C)ccc21)C(=O)N[C@@H](CO)C(=O)N[C@H](C(=O)N1CCC[C@H]1C(=O)N[C@@H](CCCNC(=N)N)C(=O)O)[C@@H](C)OP(=O)(O)O [STSpTPR (Myt1-T455), STSpTPR] (X1-STS[pT]PR-OH) | n.b. | – | – |
| CC(C)[C@H](NC(=O)[C@@H]1CCCN1C(=O)[C@@H](NC(=O)[C@H](CCCNC(=N)N)NC(=O)[C@@H]1CCCN1C(=O)[C@@H](NC(=S)Nc1ccc2c(c1)C(=O)OC21c2ccc(N(C)C)cc2Oc2cc(N(C)C)ccc21)C(C)C)[C@@H](C)OP(=O)(O)O)C(=O)O [VPRpTPV (Cdc25c-T48), VPRpTPV] (X1-VPR[pT]PV-OH) | n.b. | – | – |
| YSPTSPS [YSPTSPS (CTD), unphosphorylated heptad repeat of the C-terminal domain of RNA Polymerase II, rhodamine-labeled] | n.b. | n.b. | n.b. |
